In US12029739B2, “SHP2 inhibitor and use thereof” (KANAPH THERAPEUTICS INC., priority 2021, dated 2024):

molecular target: T1, SHP2 (full length) (Homo sapiens, UniProt Q06124); assay: Phosphatase assay (PTPase assay) with DiFMUP substrate; format: biochemical; conditions: SHP2 activated with SHP2 activating peptide; DiFMUP 80 μM, 2 hours; fluorescence; read-out: IC50 (PTPase aS say)
T1 construct: SHP2 (full length, diluted to 100 pM final concentration in reaction buffer, BPS bioscience, US); purchased BPS bioscience, US
T1 sequence (Q06124 1-593): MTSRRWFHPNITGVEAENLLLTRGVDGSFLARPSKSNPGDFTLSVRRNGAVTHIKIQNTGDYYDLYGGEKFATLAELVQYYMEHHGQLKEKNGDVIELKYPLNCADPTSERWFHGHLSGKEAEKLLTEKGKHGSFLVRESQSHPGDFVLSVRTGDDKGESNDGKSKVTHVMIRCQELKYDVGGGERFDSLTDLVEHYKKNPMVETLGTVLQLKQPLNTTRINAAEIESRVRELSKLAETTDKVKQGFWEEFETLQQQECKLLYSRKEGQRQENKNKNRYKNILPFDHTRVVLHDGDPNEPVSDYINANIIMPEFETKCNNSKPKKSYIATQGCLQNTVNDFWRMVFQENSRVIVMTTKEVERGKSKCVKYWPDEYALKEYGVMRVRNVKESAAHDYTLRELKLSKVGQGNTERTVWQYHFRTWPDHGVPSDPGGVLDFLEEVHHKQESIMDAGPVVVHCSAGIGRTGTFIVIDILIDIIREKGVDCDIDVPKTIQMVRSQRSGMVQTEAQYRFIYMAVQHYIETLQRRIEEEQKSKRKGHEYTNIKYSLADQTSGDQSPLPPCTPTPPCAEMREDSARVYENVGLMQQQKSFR

IC50 [nM] | SMILES
3 to 100 | C[C@@H]1OCC2(CCN(c3cnc(Sc4ccc5ncn(CCO)c(=O)c5c4Cl)cn3)CC2)[C@@H]1N [Example 58, 6-((5-((3S,4S)-4-amino-3-methyl-2-oxa-8-azaspiro[4.5]decan-8-yl)pyrazin-2-yl)thio)-5-chloro-3-(2-hydroxyethyl)quinazolin-4(3H)-one]
3 to 100 | C[C@@H]1OCC2(CCN(c3cnc(Sc4ccc5ncn(CC6CCNC6)c(=O)c5c4Cl)cn3)CC2)[C@@H]1N (stereo partly drawn) [Example 55, 6-((5-((3S,4S)-4-amino-3-methyl-2-oxa-8-azaspiro[4.5]decan-8-yl)pyrazin-2-yl)thio)-5-chloro-3-(pyrrolidin-3-ylmethyl)quinazolin-4(3H)-one]
3 to 100 | C[C@@H]1OCC2(CCN(c3cnc(Sc4ccc5ncn(CC6CCCN6)c(=O)c5c4Cl)cn3)CC2)[C@@H]1N (stereo partly drawn) [Example 54, 6-((5-((3S,4S)-4-amino-3-methyl-2-oxa-8-azaspiro[4.5]decan-8-yl)pyrazin-2-yl)thio)-5-chloro-3-(pyrrolidin-2-ylmethyl)quinazolin-4(3H)-one]
> 100 | Cn1c(N2CCN(CCN)CC2)nc(N)c(Sc2ccnc(N)c2Cl)c1=O [Example 192]
3 to 100 | N[C@H]1c2cccnc2CC12CCN(c1cnc(Sc3ccc4ncn(Cc5ccccc5)c(=O)c4c3Cl)cn1)CC2 [Example 101, (R)-6-((5-(5-amino-5,7-dihydrospiro[cyclopenta[b]pyridine-6,4′-piperidin]-1′-yl)pyrazin-2-yl)thio)-3-benzyl-5-chloroquinazolin-4(3H)-one]
> 100 | Cn1c(N2CCN(C[C@@H](N)Cc3ccncc3)CC2)nc(N)c(Sc2cccc(Cl)c2Cl)c1=O [Example 187, (S)-6-amino-2-(4-(2-amino-3-(pyridin-4-yl)propyl)piperazin-1-yl)-5-((2,3-dichlorophenyl)thio)-3-methylpyrimidin-4(3H)-one]
< 3 | C[C@@H]1OCC2(CCN(c3cnc(Sc4ccc5ncn(Cc6ccon6)c(=O)c5c4Cl)cn3)CC2)[C@@H]1N [Example 56, 6-((5-((3S,4S)-4-amino-3-methyl-2-oxa-8-azaspiro[4.5]decan-8-yl)pyrazin-2-yl)thio)-5-chloro-3-(isoxazol-3-ylmethyl)quinazolin-4(3H)-one]
3 to 100 | N[C@H]1c2ccccc2CC12CCN(c1cnc(Sc3ccc4ncn(Cc5ccccc5)c(=O)c4c3Cl)cn1)CC2 [Example 100]
< 3 | COCCn1cnc2ccc(Sc3ncc(N4CCC5(CC4)Cc4ncsc4[C@H]5N)nc3N)c(Cl)c2c1=O [Example 164, (S)-6-((3-amino-5-(6-amino-4,6-dihydrospiro[cyclopenta[d]thiazole-5,4′-piperidin]-1′-yl)pyrazin-2-yl)thio)-5-chloro-3-(2-methoxyethyl)quinazolin-4(31-1)-one]
< 3 | N[C@@H]1c2ccccc2CC12CCN(c1cnc(Sc3ccc4ncn(Cc5ccccc5)c(=O)c4c3Cl)cn1)CC2 [Example 99, (S)-6-((5-(1-amino-1,3-dihydrospiro(indene-2,4′-piperidin]-1′-yl)pyrazin-2-yl)thio)-3-benzyl-5-chloroquinazolin-4(3H)-one]
< 3 | COc1ccc2c(c1)[C@@H](N)C1(CCN(c3cnc(Sc4ccc5ncn(CC(C)(C)O)c(=O)c5c4Cl)cn3)CC1)C2 [Example 162, (S)-6-((5-(1-amino-6-methoxy-1,3-dihydrospiro[indene-2,4′-piperidin]-1′-yl)pyrazin-2-yl)thio)-5-chloro-3-(2-hydroxy-2-methylpropyl)quinazolin-4(3H)-one]
< 3 | C[C@@H]1OCC2(CCN(c3cnc(Sc4ccc5ncn(Cc6ccno6)c(=O)c5c4Cl)cn3)CC2)[C@@H]1N [Example 57, 6-((5-((3S,4S)-4-amino-3-methyl-2-oxa-8-azaspiro[4.5]decan-8-yl)pyrazin-2-yl)thio)-5-chloro-3-(isoxazol-5-ylmethyl)quinazolin-4(3H)-one]
